Values after ≈ are worked out from the molar mass of the structure shown. Values joined by “and” are separate entries in the source; they are usually repeats but may differ in a detail not shown here. Equal values may be shown once.

This is an account of results in US5756491A, “Antiviral cobalt-organic compounds” (priority 1991, dated 1998).

The test system of test [1] is HFF cells. Nature of the test: Neutral red uptake toxicity. The conditions noted are these: stationary cells. The format is cell-based, human.
For test [2], the system named is HFF cells. The test is described as follows: MTT assay for cell cytotoxicity. The format is cell-based, human. The conditions noted are these: stationary cells. The procedure:
Twenty-four hours prior to assay, HFF cells are plated into 96 well plates at a concentration of […] cells per well. After 24 h, the media is aspirated and […] of drug is added to the first row of wells and then diluted serially 1:5 using the automated Cetus Liquid Handling System in a manner similar to that used in the CPE assay. The plates are then incubated in a CO2 incubator at 37° C. for seven days. At this time, each well receives 50 microliters of […] solution of MTT in Dulbecco's Phosphate Buffered Saline. The plates are then incubated for an additional four hours. At this time, the media is removed and replaced with 100 μl of 0.04N hydrochloric acid in isopropanol. After shaking briefly, the plates are then read on a plate reader at 550 nm.
Background: Tetrazolium assays rely on reduction of a dye to a coloured formazan, in cell work by metabolically active cells.

Test [3] concerns HFF cells. The test is described as follows: Cell proliferation assay. The format is cell-based, human. Particulars: rapidly growing cells. The procedure:
Twenty-four hours prior to assay, HFF cells are seeded in 6-well plates at a concentration of 2.5×10^4 cells per well in MEM containing 10% FBS. On the day of the assay, drugs are diluted serially in MEM containing 10% FBS at increments of 1:5 covering a range from 100 μg/ml to 0.03 μg/ml. […] The media from the wells is then aspirated and 2 ml of each drug concentration is then added to each well. The cells are then incubated in a Co2 incubator at 37° C. for 72 h. At the end of this time, the media-drug solution is removed and the cells washed. […] The cell-media mixture is then pipetted up and down vigorously to break up the cell suspension and 0.2 ml of the mixture is added to 9.8 ml of Isoton III and counted using a Coulter Counter. Each sample is counted three times with three replicate wells per sample.

The next test concerns HCMV. Nature of the test: HCMV plaque assay. It counts as cell-based. The conditions noted are these: Human betaherpesvirus 5, HCMV. The procedure:
The procedure is essentially the same as for HSV analysis with the following minor changes. The agarose used for the initial overlay and the two subsequent overlays is 0.8% rather than 1%. The assay is incubated for 14 days with the additional 1 ml overlays being applied on days four and eight.
The procedure for the liquid overlay plaque assay is similar to that using the agarose overlay. The procedure for adding the virus is the same as for the regular plaque assay. The drugs are made up in a concentration to be used in MEM with 2% FBS. The drugs are not made up at 2×concentration as in previous assays but are made up at the desired concentration. For HSV-1 and HSV-2 assays, an antibody preparation obtained from Baxter Health Care Corporation is diluted 1:500 and added to the media that the drug is diluted in. For CMV and VZV, no antibody in the overlay is utilized. For the CMV assay, additional medium without new drug is added on day six and allowed to incubate for a total of 11 days. For VZV, additional media is added on day five and incubated for a total of eight days. At the end of the incubation period for all of the assays, the medium is removed, the cells washed and then stained with 0.1% crystal violet solution for ten minutes. […]
I. EC50 values were also determined for each of the viruses tested for known antiviral agents. […]

As to `CC1=C(Cl)C(C)=[N+]2CC[N+]3=C(C)C(Cl)=C(C)[O][Co-3]23([NH3+])([NH3+])[O]1.[Cl-]` [Compound 67], the “toxicity IC50, neutral red uptake” value in the test on HFF cells [1] is given as 12.1 MCG/ML. In addition, in the test with HFF cells [2], the “toxicity IC50, MTT toxicity” value was found to be 42.0 MCG/ML. Further, the “toxicity IC50, cell proliferation” value in the test on HFF cells [3] was 12.0 MCG/ML.

As for `Nc1nc2c(ncn2COC(CO)CO)c(=O)[nH]1` [DHPG], in the test with HCMV, a half-maximal effect (EC50) was put at 0.9 mg/L (≈ 3.53 µM).

With `O=c1[nH]c(=O)n([C@@H]2O[C@H](CO)[C@@H](O)[C@@H]2F)cc1I` [FIAU, 2'-fluoro-5-iodo-arabinosyl-uracil], in the test with HFF cells [3], the “toxicity IC50, cell proliferation” value was 8.4 MCG/ML and 3.3 MCG/ML.

The term EC50 denotes the midpoint of the concentration-response curve. Lower therefore signals an effect from little substance.
